# Results taken from US20220000957A1, “COMPOSITION FOR ALLEVIATING SYMPTOMS OF ANDROPAUSE, CONTAINING EXTRACT OF FICUS AURICULATA LOUR. AS ACTIVE INGREDIENT” (KOREA RESEARCH INSTITUTE OF BIOSCiENCE AND BIOTECHNOLOGY, priority 2018, published 2022).
# “And” between values parts separate entries of the source, which are not always exact repeats. Identical values can stand only once.
# What was measured:
# [1] = tested on: prostate-specific antigen (PSA); assay: Inhibition of testosterone-induced prostate-specific antigen (PSA) expression in LNCaP cells, real-time RT-PCR; format: cell-based; conditions: testosterone 100 nM, 24 hours, no extract
# Procedure: Reverse transcription-real-time polymerase chain reaction (real-time RT-PCR) was used to measure the inhibition of expression of prostate-specific antigen (PSA) in testosterone-induced prostate cancer cell lines (LNCaP cells). Specifically, the prostate cancer cell line (LNCaP cells) was dispensed to a 6 well plate at 5×10^5 cells/well. After incubating for 24 hours in an incubator under conditions of 37° C. and 5% CO2, Ficus auriculata Lour. fruit extract of each country of origin (Vietnam, Nepal, Myanmar, Bangladesh, China, Laos) was added at 100 μg/ml and incubated for 3 hours. Testosterone 100 nM was added to each well except for the control and incubated for 24 hours. After incubation for 24 hours, the supernatant was removed, total RNA was extracted using Trizol, and cDNA was synthesized using PrimeScript RT Master Mix (Takara, Japan). The synthesized cDNA was subjected to real-time polymerase chain reaction using TOPreal qPCR 2×PreMIX (Enzynomics, Korea).
# Reverse transcription-real-time polymerase chain reaction (real-time RT-PCR) was used to measure the inhibition of expression of prostate-specific antigen (PSA) in testosterone-induced prostate cancer cell lines (LNCaP cells). Specifically, the prostate cancer cell line (LNCaP cells) was dispensed to a 6 well plate at 5×10^5 cells/well. […]
# androgen receptor (AR) = assay: Androgen receptor (AR) expression in LNCaP cells, real-time RT-PCR; format: cell-based; conditions: no extract
smiles,measurement,setting,value
C[C@]12CC[C@H]3[C@@H](CCC4=CC(=O)CC[C@@]43C)[C@@H]1CC[C@@H]2O [testosterone],PSA expression increased by testosterone,[1],190% and 180%
same,expression of AR increased by testosterone,androgen receptor (AR),140%
